Several values for one entry are separate records, joined by “and”; a condition that tells them apart may be missing. Equal values may be shown once.
Columns and labels:
METTL14 = assay: Cellular degradation assay (Western blot), METTL14 in MOLM-13; type: cell-based, human; details: MOLM-13, 24 h, 2 μM compound
Method: (§1) MOLM-13, NOMO-1, THP-1, Kasumi-1, PC3, and DU145 cell lines were obtained from DSMZ-German Collection of Microorganisms and Cell Cultures GmbH. Cells were cultured in RPMI 1640 medium (11875093, Thermo Fisher Scientific) containing 10% FBS (16140071, Thermo Fisher Scientific) and 1% penicillin-streptomycin (15140122, Thermo Fisher Scientific) in 5% CO2 at 37 °C in a humidified incubator, with maintained cell densities at 0.5–1 × 10^6 cells/mL. All cell lines were tested negative for mycoplasma contamination (PCR-based assay by Microsynth, Switzerland).
(§2) METTL3 (and METTL14) protein degradation was monitored by Western blot. Cells were treated with the indicated concentration of PROTACs or DMSO control (0.1% (v/v)) for 24h, 37 °C with 5% CO2. Samples were then collected and lysed with RIPA buffer with added protease inhibitors (11697498001, Roche). After SDS-PAGE, proteins were transferred to a nitrocellulose membrane, blocked (with 5% milk, 0.5% BSA in TBST buffer), and incubated overnight with primary antibodies. The following antibodies were used: GAPDH (no. 2118, Cell Signaling, 1:4000), β-actin (ab8226, Abcam, 1:2000), METTL3 (ab195352, Abcam, 1:1000), and METTL14 (ab220031, Abcam, 1:1000). Membranes were scanned using an LI-COR Odyssey DLx imager after incubation with appropriate secondary antibodies (antimouse IgG IRDye 680RD (926–68072, LI-COR, 1:10000) and goat anti-Rabbit IgG IRDye 800CW (926–32211, LI-COR, 1:10000)). Densitometry was performed in Image Studio Lite software and analyzed in GraphPad Prism 9.

METTL3 = molecular target: T1, METTL3 (Homo sapiens, UniProt Q86U44); assay: Cellular degradation assay (Western blot), METTL3 in MOLM-13; type: cell-based; details: MOLM-13, 24 h, 2 μM compound
T1 construct: METTL3–14 degradation up to 70% of the endogenous level; endogenous in cells; host or cells: MOLM-13, PC3, DU145
T1 sequence (Q86U44 2-580 limits assumed): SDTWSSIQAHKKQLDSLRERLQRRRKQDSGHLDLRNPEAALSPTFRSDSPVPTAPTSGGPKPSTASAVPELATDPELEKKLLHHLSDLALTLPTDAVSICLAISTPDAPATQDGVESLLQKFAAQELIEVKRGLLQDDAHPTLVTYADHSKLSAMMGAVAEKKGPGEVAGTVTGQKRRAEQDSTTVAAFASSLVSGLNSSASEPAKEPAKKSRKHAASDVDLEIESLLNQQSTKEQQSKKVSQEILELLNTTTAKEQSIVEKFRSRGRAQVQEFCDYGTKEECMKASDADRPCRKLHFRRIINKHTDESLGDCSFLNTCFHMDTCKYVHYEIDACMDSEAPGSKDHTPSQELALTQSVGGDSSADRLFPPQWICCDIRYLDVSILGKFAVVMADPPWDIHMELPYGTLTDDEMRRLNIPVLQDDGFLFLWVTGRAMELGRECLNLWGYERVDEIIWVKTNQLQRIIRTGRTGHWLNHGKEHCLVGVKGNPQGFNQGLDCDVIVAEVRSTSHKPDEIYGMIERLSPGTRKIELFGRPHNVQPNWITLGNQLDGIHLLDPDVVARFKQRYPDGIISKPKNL
T1 sequence (Q9HCE5 whole entry partner): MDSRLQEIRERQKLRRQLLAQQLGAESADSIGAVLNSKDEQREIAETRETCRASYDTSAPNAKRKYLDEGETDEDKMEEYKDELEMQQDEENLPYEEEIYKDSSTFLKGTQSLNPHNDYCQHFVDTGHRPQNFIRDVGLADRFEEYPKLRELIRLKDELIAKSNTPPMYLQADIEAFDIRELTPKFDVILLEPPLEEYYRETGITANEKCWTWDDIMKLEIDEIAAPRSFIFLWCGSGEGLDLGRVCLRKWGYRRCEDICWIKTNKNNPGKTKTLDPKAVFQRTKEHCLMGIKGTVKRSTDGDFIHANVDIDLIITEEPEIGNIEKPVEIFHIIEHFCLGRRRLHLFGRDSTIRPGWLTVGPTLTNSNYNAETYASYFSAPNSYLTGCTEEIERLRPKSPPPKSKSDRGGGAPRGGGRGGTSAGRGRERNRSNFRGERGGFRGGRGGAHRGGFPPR
Method: as §1, §2

METTL3-14 = METTL3-14 (Homo sapiens, UniProt Q86U44); assay: biochemical; parameters: with the full-length complex, the recombinant complex construct pFastBacDual-StrepII-GFP-TEV-METTL3-His-TEV-METTL14 was expressed; StrepII (N); GFP (N); TEV site (N); made in house; host or cells: baculovirus/Sf9 insect cells; details: inhibition of catalytic activity of METTL3-14, binary FRET assay
Sequence of METTL3-14 (Q86U44 whole entry): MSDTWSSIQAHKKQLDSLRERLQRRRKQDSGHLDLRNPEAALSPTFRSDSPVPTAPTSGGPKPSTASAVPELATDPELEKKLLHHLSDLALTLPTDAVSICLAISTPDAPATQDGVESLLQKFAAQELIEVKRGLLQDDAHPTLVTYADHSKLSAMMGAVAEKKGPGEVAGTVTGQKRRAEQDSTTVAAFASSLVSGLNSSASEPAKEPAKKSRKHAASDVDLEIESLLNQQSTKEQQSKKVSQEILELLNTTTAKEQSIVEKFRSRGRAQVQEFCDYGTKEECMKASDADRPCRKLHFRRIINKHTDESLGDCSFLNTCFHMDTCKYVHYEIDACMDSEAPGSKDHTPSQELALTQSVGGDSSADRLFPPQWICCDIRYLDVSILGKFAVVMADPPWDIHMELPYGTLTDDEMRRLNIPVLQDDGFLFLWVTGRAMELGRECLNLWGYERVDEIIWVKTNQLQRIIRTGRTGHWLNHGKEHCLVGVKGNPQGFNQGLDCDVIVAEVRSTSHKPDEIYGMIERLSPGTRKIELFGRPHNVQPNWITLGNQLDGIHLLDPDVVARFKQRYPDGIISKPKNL
Sequence of METTL3-14 (Q9HCE5 whole entry, further chain): as the sequence (Q9HCE5 whole entry partner) above
From the text: For determining the half maximal inhibitory concentration (IC50) with the full-length complex, the recombinant complex construct pFastBacDual-StrepII-GFP-TEV-METTL3-His-TEV-METTL14 was expressed using the baculovirus/Sf9 insect cell expression system and purified as described previously.[21]
The inhibitory potencies of the PROTACs for METTL3 were quantified by a homogeneous time-resolved fluorescence (HTRF)-based enzyme assay as previously described.[40]

[1] = molecular target: T2, ternary complex CRBN/PROTAC/METTL3–14 (Homo sapiens, UniProt Q86U44+Q96SW2); assay: FRET-based ternary complex formation assay (TCFA); type: binding; details: for TCFA amplitude (mean ± SEM): Hook curve amplitude, fraction of the maximum of compound 16; for ECmax (nM) ± SD: PROTAC concentration at the maximum of the signal in the TCFA; for ECmax: TCFA, peak of the Hook curve
T2 construct: methyltransferase domains (MTD) of METTL3 (residues 354–580); His6 (N, cleaved yes); made in house; host or cells: METTL3-MTD/METTL14-MTD: baculovirus/Sf9; CRBN-TBD: E. coli Rosetta (DE3), co-expressed with BirA
T2 sequence (Q86U44 354-580): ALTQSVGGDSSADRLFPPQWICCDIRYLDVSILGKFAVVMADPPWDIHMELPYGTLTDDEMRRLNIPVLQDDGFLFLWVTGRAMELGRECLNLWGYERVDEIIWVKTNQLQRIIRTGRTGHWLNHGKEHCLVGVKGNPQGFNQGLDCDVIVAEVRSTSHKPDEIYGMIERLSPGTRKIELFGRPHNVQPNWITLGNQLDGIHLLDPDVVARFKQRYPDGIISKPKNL
T2 sequence (Q9HCE5 107-395 partner limits assumed): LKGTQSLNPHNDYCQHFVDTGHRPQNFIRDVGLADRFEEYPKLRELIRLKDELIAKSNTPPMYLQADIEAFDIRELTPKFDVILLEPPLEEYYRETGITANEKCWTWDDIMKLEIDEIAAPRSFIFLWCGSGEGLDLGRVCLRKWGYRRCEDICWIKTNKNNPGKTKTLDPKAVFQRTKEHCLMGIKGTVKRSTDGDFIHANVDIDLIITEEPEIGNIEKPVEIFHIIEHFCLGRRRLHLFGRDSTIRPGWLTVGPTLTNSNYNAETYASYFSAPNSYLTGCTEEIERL
T2 sequence (Q96SW2 318-442): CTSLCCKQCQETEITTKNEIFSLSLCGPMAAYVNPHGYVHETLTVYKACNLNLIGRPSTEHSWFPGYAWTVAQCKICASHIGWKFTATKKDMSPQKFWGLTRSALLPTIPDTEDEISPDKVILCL
Method: For protein expression, suspension cultures of Sf9 cells in […] medium (Thermo Fisher) were infected at a density of 2 × 10^6 mL^–1. […] The complex was further purified by size exclusion chromatography using a Superdex 200 Increase 10/300 GL column (Cytiva) in 20 mM Tris-Cl, pH 8.0, and 200 mM KCl. The complex was aliquoted and flash-frozen in liquid nitrogen and stored at −80 °C until further use.
Ternary complex formation between the PROTACs, METTL3, and CRBN was quantified by a homogeneous time-resolved fluorescence (HTRF)-based enzyme assay. […] Curves of titrations with the PROTACs were plotted in GraphPad Prism 9.5.1 and fitted with a Gaussian function, if appropriate. […] CRBN^TBD-Avi(biotin) was used at a final concentration of 10 nM. […] Anti-GST Eu^3+-labeled antibody (Cisbio, 61GSTKLB) was used at a final concentration of 0.8 nM. The final reaction volume was 20 μL in 50 mM HEPES (pH 7.5), 150 mM NaCl, 0.1% BSA, 100 mM KF. […] The ratio of the emissions [drawing 1] was considered for further analysis. […] The concentrations resulting in the maximum signal (ECmax) and the amplitudes of the Hook curves were determined from the parameters of the Gaussian fit (if appropriate) or as the coordinates of the data-point with the highest TR-FRET signal.
For the ternary complex formation assay (TCFA), one of the protein partners must have a GST-tag and the other a biotin-tag.

[2] = Cell viability assay (CellTiter-Glo) on MOLM-13; type: cell-based; details: human, MOLM-13 cells, average of two biological replicates; for viability at 72 h, […]: 2.5 µM
Method: as §1
Cell viability was determined using a CellTiter-Glo luminescent cell viability assay (Promega) based on the detection of ATP according to the manufacturer’s instructions. 100 μL of the reagent was added to each well and incubated for 10 min at room temperature. […] Background luminescence value was obtained from wells containing the CellTiter-Glo reagent and medium without cells. The resulting data was analyzed in GraphPad Prism 9.

Compound	MOLM-13 West. blot at 24h 2 μM comp conc. Degradation (%) of METTL14 (METTL14)	MOLM-13 West. blot at 24h 2 μM comp conc. Degradation (%) of METTL3 (METTL3)	IC50 (METTL3-14)	TCFA amplitude (mean ± SEM) [1]	ECmax (nM) ± SD [1]	ECmax [1]	viability at 72 h, 10 µM [2]	viability at 72 h, 0.6 µM [2]	viability at 72 h, 1.25 µM [2]	viability at 72 h, […] [2]	viability at 72 h, 5 µM [2]
CC1(C)CCN(Cc2ccc(N3CC(=O)NC4(CCN(c5cc(NCCCNC(=O)CCCCCCCCCCNc6cccc7c6CN(C6CCC(=O)NC6=O)C7=O)ncn5)CC4)C3)cc2)CC1 (centres unmarked) [Compound 6]	/ (Degradation <10% or stabilization)	/ (Degradation <10% or stabilization)	520 ± 60 nM	0.4	3600 (n = 1) nM	–	–	–	–	–	–
CC1(C)CCN(Cc2ccc(N3CC(=O)NC4(CCN(c5cc(NCCCNC(=O)CCCCCCCCCCCCCCNc6cccc7c6CN(C6CCC(=O)NC6=O)C7=O)ncn5)CC4)C3)cc2)CC1 (centres unmarked) [Compound 7]	/ (Degradation <10% or stabilization)	/ (Degradation <10% or stabilization)	1220 ± 90 nM	0.1	5300 (n = 1) nM	–	–	–	–	–	–
CC1(C)CCN(Cc2cc(F)c(N3CC(=O)NC4(CCN(c5cc(NCCCNC(=O)CCCCCCCCCCn6cc(CNc7cccc8c7C(=O)N(C7CCC(=O)NC7=O)C8=O)nn6)ncn5)CC4)C3)cc2F)CC1 (centres unmarked) [Compound 13]	19 ± 13%	19 ± 20%	220 ± 40 nM	0.8 ± 0.0	1800 ± 250 nM	–	–	–	–	–	–
CC1(C)CCN(Cc2ccc(N3CC(=O)NC4(CCN(c5cc(NCCCNC(=O)CCOCCOCCOCCOCCNc6cccc7c6C(=O)N(C6CCC(=O)NC6=O)C7=O)ncn5)CC4)C3)cc2)CC1 (centres unmarked) [Compound 3]	/ (Degradation <10% or stabilization)	/ (Degradation <10% or stabilization)	590 ± 130 nM	0.3 ± 0.2	1900 (n = 1) nM	1.9 µM	–	–	–	–	–
CC1(C)CCN(Cc2ccc(N3CC(=O)NC4(CCN(c5cc(NCCCNC(=O)CCCCCCCCNc6cccc7c6CN(C6CCC(=O)NC6=O)C7=O)ncn5)CC4)C3)cc2)CC1 (centres unmarked) [Compound 5]	/ (Degradation <10% or stabilization)	/ (Degradation <10% or stabilization)	260 ± 30 nM	0.7 ± 0.1	660 ± 20 nM	–	–	–	–	–	–
CC1(C)CCN(Cc2ccc(N3CC(=O)NC4(CCN(c5cc(NCCCNC(=O)CCOCCOCCOCCOCCOCCNc6cccc7c6C(=O)N(C6CCC(=O)NC6=O)C7=O)ncn5)CC4)C3)cc2)CC1 (centres unmarked) [Compound 4]	/ (Degradation <10% or stabilization)	/ (Degradation <10% or stabilization)	640 ± 120 nM	0.4	2000 (n = 1) nM	2.0 µM	–	–	–	–	–
CC1(C)CCN(Cc2cc(F)c(N3CC(=O)NC4(CCN(c5cc(NCC6CCN(C(=O)CN7CCN(c8cccc9c8C(=O)N(C8CCC(=O)NC8=O)C9=O)CC7)CC6)ncn5)CC4)C3)cc2F)CC1 (centres unmarked) [Compound 35]	25 ± 3%	21% and 21 ± 11%	–	0.7 ± 0.2	20 ± 0 nM	–	105%	–	–	–	–
CC1(C)CCN(Cc2ccc(N3CC(=O)NC4(CCN(c5cc(NCCCNC(=O)CCCCCCCCn6cc(CNc7cccc8c7C(=O)N(C7CCC(=O)NC7=O)C8=O)nn6)ncn5)CC4)C3)cc2)CC1 (centres unmarked) [Compound 9]	/ (Degradation <10% or stabilization)	/ (Degradation <10% or stabilization)	1800 ± 290 nM	0.4	6700 (n = 1) nM	–	–	–	–	–	–
CC1(C)CCN(Cc2cc(F)c(N3CC(=O)NC4(CCN(c5cc(NCC6CCN(C(=O)CNc7cccc8c7C(=O)N(C7CCC(=O)NC7=O)C8=O)CC6)ncn5)CC4)C3)cc2F)CC1 (centres unmarked) [Compound 21]	23 ± 9%	21% and 21 ± 9%	–	1.3 ± 0.1	60 ± 30 nM	0.06 µM	102%	104%	105%	110%	110%
CC1(C)CCN(Cc2ccc(N3CC(=O)NC4(CCN(c5cc(NCCCNC(=O)CCCCCCCCCCn6cc(CNc7cccc8c7C(=O)N(C7CCC(=O)NC7=O)C8=O)nn6)ncn5)CC4)C3)cc2)CC1 (centres unmarked) [Compound 8]	/ (Degradation <10% or stabilization)	/ (Degradation <10% or stabilization)	480 ± 100 nM	0.6	2200 (n = 1) nM	–	–	–	–	–	–
CC1(C)CCN(Cc2ccc(N3CC(=O)NC4(CCN(c5cc(NCCCNC(=O)CCOCCOCCNc6cccc7c6C(=O)N(C6CCC(=O)NC6=O)C7=O)ncn5)CC4)C3)cc2)CC1 (centres unmarked) [Compound 1]	/ ^a (Degradation <10% or stabilization)	/ ^a (Degradation <10% or stabilization)	2470 ± 790 nM	0.03	6800 (n = 1) nM	6.8 µM	–	–	–	–	–
CC1(C)CCN(Cc2cc(F)c(N3CC(=O)NC4(CCN(c5cc(NCc6ccc(N7CCN(c8cccc9c8C(=O)N(C8CCC(=O)NC8=O)C9=O)CC7)cc6)ncn5)CC4)C3)cc2F)CC1 (centres unmarked) [Compound 34]	< 10%	–	–	0.2 ± 0.1	120 ± 30 nM	–	101%	95.8%	97.3%	96.3%	99.2%

Reference: article PMC10900215 (JACS Au, 2024)
